pEC50, pIC50: −log10 of the molar value. Where two headings read alike, the source gives them in different places. One block for each molecule: values may come before it.
Columns and labels:
[1] = system: HIV; conditions: in vitro resistance studies; cited from earlier work
[2] = molecular target: CYP2D6 (Homo sapiens (Human), UniProt P10635); experiment: Recombinant CYP inhibition assay (fluorometric), CYP2D6; assay type: in vitro ADME; conditions: for pIC50: Table 1
Excerpt: (§1) Recombinant CYP Inhibition Assay: In a drug discovery program, a rapid screening for cyctochrome P450 (CYP450) inhibitors is a part of the existing standard for avoiding the development of drugs likely to give clinical pharmacokinetic drug-drug interactions and associated toxicities. A microtiter plate-based, direct fluorometric assay for the activities of the principal human drug-metabolizing enzymes, CYP2D6 and CYP3A4 can be used and these assays are rapid and compatible with existing high-throughput assay instrumentation.
(§2) Fluorometric Enzyme Inhibition Assays: Test compounds were dissolved in 100% organic solvent (CH3CN or DMSO) to make 30 mM stock solutions. […] A 100 mM potassium phosphate buffer was prepared and adjusted to pH 7.4. The 30 mM stock solution of test and control compounds (1 mM) were further diluted in phosphate buffer (100 mM, pH 7.4) to ensure the final organic solvent content was <0.2% in the reaction. In a separate falcon tube, a 2× enzyme/substrate (E/S) solution was prepared in phosphate buffer. The final concentration of CYP2D6 (Corning) and AMMC was 10 nM and 4 μM, and CYP3A4 (Corning) and BFC was 20 nM and 40 μM, respectively. In a separate falcon tube, a 2× NADPH regenerating system (NRS) was prepared in phosphate buffer. The final concentration for each component in the assay was as follows: • CYP2D6 assay=0.008 mM NADPH, 3.3 mM glucose 6-phosphate, 0.4 U of glucose-6-phosphate dehydrogenase/mL • CYP3A4 assay=2.45 mM NADPH, 24.7 mM glucose 6-phosphate, 1.25 U of glucose-6-phosphate dehydrogenase/mL
(§3) Both enzymatic assays were conducted in a 96-well microtiter plate (Black, Corning Costar) with a final volume of 100 μL. Preparation of the plate began with the addition of 74 μL of the E/S in the first well, and 50 μL to all subsequent wells (from 2-11). The test compounds (1 μL) were dissolved in the first well to give the first row a final volume of 75 μL. A 1:3 serial dilution of the test compound was conducted by removing 25 μL from the first well and diluting it with the second and so forth until the tenth row. Final concentrations yielded a range from 300 μM-0.01 μM. Well 11 contained no enzyme, and well 12 contained no inhibitor. Both were used as controls for background fluorescence. The plate was incubated for 10 min at 37° C. for CYP2D6, and 30 mins for CYP3A4. After incubation, the reaction was initiated by the addition of 50 μL of the 2× NRS to each well.
(§4) Immediately (within 1 min) the fluorescence was measured using a microplate reader (KC4, BioTek). CYP2D6 was monitored at Ex/Em=410/460 nm, and CYP3A4 monitored at Ex/Em=410/538 nm in kinetic mode that scanned every 5 min for 60 mins. Data was exported and corrected for background noise by subtracting the blank from the mean value of all other columns. […]

[3] = molecular target: CYP3A4 (Homo sapiens (Human), UniProt P08684); experiment: Recombinant CYP inhibition assay (fluorometric), CYP3A4; assay type: in vitro ADME; conditions: for pIC50: Table 1
Chain of CYP3A4 (P08684 whole entry): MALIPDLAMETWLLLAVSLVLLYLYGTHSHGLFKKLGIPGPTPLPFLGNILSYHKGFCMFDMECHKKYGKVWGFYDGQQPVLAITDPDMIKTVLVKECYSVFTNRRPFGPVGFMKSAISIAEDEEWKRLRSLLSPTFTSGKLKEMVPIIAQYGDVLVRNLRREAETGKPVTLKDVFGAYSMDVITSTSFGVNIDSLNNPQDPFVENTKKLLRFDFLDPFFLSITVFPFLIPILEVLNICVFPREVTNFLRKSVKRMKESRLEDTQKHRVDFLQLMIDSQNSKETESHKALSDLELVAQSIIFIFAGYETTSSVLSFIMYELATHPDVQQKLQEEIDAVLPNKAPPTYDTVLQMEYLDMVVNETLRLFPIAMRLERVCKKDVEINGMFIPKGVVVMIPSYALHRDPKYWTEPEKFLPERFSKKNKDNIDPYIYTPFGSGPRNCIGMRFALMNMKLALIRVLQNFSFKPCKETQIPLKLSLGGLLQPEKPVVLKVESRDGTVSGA
Excerpt: as §1, §2, §3, §4

[4] = system: HIV-1IIIB; experiment: HIV MAGI assay, HIV-1IIIB; assay type: cell-based; conditions: Human immunodeficiency virus 1, MAGI; for pEC50: Table 1, read-out: HIV MAGI EC50 HIVIIIB
Procedure: (§5) HIV-1 and MAGI Tropism assays can be used to establish activity/cytotoxicity and synergy studies and ADME profiles of compounds are evaluated using in vitro assays such as CYP2D6/3A4 assays and metabolic stability in human and mouse liver microsomes (See Tables 2 and 3).

[5] = system: HIV-1BaL; experiment: HIV MAGI assay, HIV-1BaL; assay type: cell-based; conditions: Human immunodeficiency virus 1, MAGI; for pEC50: Table 1, read-out: HIV MAGI EC50 HIVBa-L
Procedure: as §5

[6] = for Relative % remaining, human liver microsomes / HLM: both, 3 μM, pH 7.4; for HLM: human, microsomes
Procedure: Human Liver Microsomes: Pooled mixed gender human liver microsomes at a concentration of 20 mg/mL were purchased from XenoTech (Kansas City, Kans.). The vials of microsomes were stored at −80° C. and thawed on ice before each experiment. The microsomes were diluted to 1 mg/mL with 100 mM potassium phosphate buffer (pH 7.4).
Experimental Conditions: Test compounds were weighed and dissolved in 100% acetonitrile to make 2 mM stock solutions. […] The 2 mM stock solution of test and control compounds were further diluted in sodium phosphate buffer (100 mM, pH 7.4) to 50 μM to ensure the acetonitrile content was <0.2%.
The liver microsome assay was prepared in a 1.5 mL Eppendorf tube (Fisher Scientific) with a final volume of 1100 μL. Each reaction contained sodium phosphate buffer, liver microsomes (1 mg/mL), and test compound resulting in a final concentration of 3 μM. Following a 5 min pre-incubation of drug and microsomes in a 37° C. shaking incubator, the reaction was initiated with NADPH (110 μL). Aliquots (100 μL) were removed in duplicate at 0, 5, 10, 15, and […] and quenched in cold acetonitrile (200 μL). The aliquots were centrifuged at 12,000 g for 5 min and the supernatant removed and placed in an LCMS vial. […] A no NADPH negative control with test and control compound was conducted in singlet (150 μL) at the longest time point. Controls were processed and analyzed like test compounds.
An Agilent Technologies LCMS system consisting of an Agilent 6120 quadrupole mass spectrometer equipped with an Agilent 1200 binary pump, degasser, and auto sampler (Santa Clara, Calif.). The analytical column used for analysis was an XDB-Eclipse Plus C18 column (4.6 mm×150 mm column; Agilent Technologies). The mobile phase for the HPLC was 50 mM ammonium formate buffer, pH 3.5 (A) and acetonitrile (B). The samples were analyzed using the following 8-minute method: A linear gradient from 10% B to 95% B over for 5 minutes, with a 3 min hold at 95%. An equilibration at 10% B for 5 min was conducted after each run. Sample injection volume was 10 μL and the flow rate was 1.0 mL/min. Single ion monitoring of the mass in positive mode was conducted the molecular weight for each compound. Each time point was assessed on the LCMS and the area, based on the extracted ion, was manually integrated.
Calculations: The depletion of the compound was monitored as a function of time, and the area under the curve was manually integrated. The relative percent remaining was calculated using: Relative % remaining=AreaTime/AreaTime=0*100. The relative percentages for the duplicate runs were averaged and the standard deviations were calculated. Metabolism data averaged duplicates.

[7] = Mouse liver microsomes assay; assay type: in vitro ADME; conditions: for Relative % remaining, mouse liver microsomes: 3 μM compound, 1 mg/mL microsomes; for MLM: @ 10 min, Table 1
Procedure: Controls were processed and analyzed like test compounds. […] The relative percent remaining was calculated using: Relative % remaining=[…]=0*100. […] Metabolism data averaged duplicates.

[8] = system: MAGI; experiment: Cytotoxicity in MAGI HIV-1IIIB assay; assay type: cell-based; conditions: Table 3
Procedure: as §5

[9] = system: MAGI; experiment: Cytotoxicity in MAGI HIV-1BaL assay; assay type: cell-based; conditions: Table 3; head prints TC90
Procedure: as §5

Chain of CYP2D6 (P10635 whole entry): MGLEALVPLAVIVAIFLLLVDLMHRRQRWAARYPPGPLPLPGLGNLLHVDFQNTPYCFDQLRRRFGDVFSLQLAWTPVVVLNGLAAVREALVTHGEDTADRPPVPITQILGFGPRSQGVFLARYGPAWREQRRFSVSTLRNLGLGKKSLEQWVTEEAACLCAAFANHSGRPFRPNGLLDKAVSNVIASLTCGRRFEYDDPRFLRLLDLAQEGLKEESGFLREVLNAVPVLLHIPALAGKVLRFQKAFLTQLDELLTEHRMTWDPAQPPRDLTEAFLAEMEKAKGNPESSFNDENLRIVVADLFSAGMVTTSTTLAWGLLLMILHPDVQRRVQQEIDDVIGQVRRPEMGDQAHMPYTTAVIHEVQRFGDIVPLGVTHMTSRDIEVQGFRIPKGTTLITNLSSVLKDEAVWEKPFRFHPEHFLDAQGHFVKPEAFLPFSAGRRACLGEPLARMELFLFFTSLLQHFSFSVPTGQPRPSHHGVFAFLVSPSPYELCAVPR

SMILES: c1cc(CN2CCCNCCNCCCNCC2)ccc1CN1CCCNCCNCCCNCC1 [AMD3100]
Passages required to develop resistance [1]: 63 passages

inhibition at 60 min, 1 µM ([2]; human, recombinant CYP2D6, pH 7.4, probe AMMC (4 μM), at 1 μM, read-out: Inhibition of P450 2D6): 100%
Inhibition of P450 3A4 ([3]; at 1 μM): 35%
SMILES: NCCCCN(Cc1nc2ccccc2[nH]1)[C@H]1CCCc2cccnc21 [AMD11070, reference compound]

SMILES: Cc1cn([C@H]2C[C@H](N=[N+]=[N-])[C@@H](CO)O2)c(=O)[nH]c1=O [AZT]
Passages required to develop resistance [1]: 11 passages

pEC50 [4]: 6.66
pEC50 [5]: 5.59
pIC50 [2]: < 4.70
pIC50 [3]: < 4.70
Relative % remaining, human liver microsomes ([6]; 10 min): 58 ± 4.9%
Relative % remaining, human liver microsomes ([6]; 0.5 h): 25 ± 0.1%
HLM ([6]; 10 min): 58% @ 10 min
Relative % remaining, mouse liver microsomes ([7]; 10 min): 116 ± 3.1%
Relative % remaining, mouse liver microsomes ([7]; 30 min): 93 ± 8.9%
MLM [7]: 100% @ 10 min
SMILES: NCCCCN(C[C@@H]1CN(CC[C@H](NC(=O)C2CCC(F)(F)CC2)c2ccccc2)CCN1)[C@H]1CCCc2cccnc21 [Compound 1]

pIC50 ([4]; Table 3): 7.15
IC90 ([4]; Table 3): 0.68 µM
pEC50 [4]: 7.15
pIC50 ([5]; Table 3): 5.58
IC90 ([5]; Table 3): 29.1 µM
pEC50 [5]: 5.58
pIC50 [2]: < 4.70
Inhibition of cytochrome P450 isoform 2D6 (in words) ([2]; preliminary ADME screening): does not inhibit
pIC50 [3]: < 4.70
Inhibition of cytochrome P450 isoform 3A4 (in words) ([3]; preliminary ADME screening): does not inhibit
Stability in human liver microsomes (in words) [6]: good stability
Relative % remaining, human liver microsomes ([6]; 10 min): 65 ± 8.6%
Relative % remaining, human liver microsomes ([6]; 0.5 h): 78 ± 2.2%
HLM ([6]; 10 min): 65% @ 10 min
Stability in mouse liver microsomes (in words) [7]: good stability
Relative % remaining, mouse liver microsomes ([7]; 10 min): 95 ± 7.2%
Relative % remaining, mouse liver microsomes ([7]; 30 min): 96 ± 6.5%
MLM [7]: 95% @ 10 min
SMILES: NCCCCN(C[C@H]1CN(CC[C@H](NC(=O)C2CCC(F)(F)CC2)c2ccccc2)CCN1)[C@H]1CCCc2cccnc21 [Compound 2]
MAGI HIV-1IIIB TC50 [8]: >10.0 µM
MAGI HIV-1BaL TC90 [9]: 33.1 µM

SMILES: Cc1ccc(-c2ccc3c(c2)C=C(C(=O)Nc2ccc(C[N+](C)(C)C4CCOCC4)cc2)CCC3)cc1.[Cl-] [TAK-779]
Passages required to develop resistance [1]: 41 passages

SMILES: Cc1ccnc2c1NC(=O)c1cccnc1N2C1CC1 [nevirapine]
Passages required to develop resistance [1]: 2 passages
